Data set [1] has as its system human mesothelioma PDX Meso7212. Kind of data set: Human mesothelioma PDX model Meso7212 (Example 3).
Protocol: NMRI nu/nu female mice (Janvier Labs, 5-6 weeks) were acclimated for at least 4 days upon arrival prior to inoculation. Animals was housed 3-5 mice per ventilated cage with sterilized food pellets and water bottle available ad lib. Animals were ear marked and weighed prior to study initiation.
Donor tumor tissue was cut into 2×2 mm fragments and placed in a sterile Petri dish covered with 0.9% saline. In parallel, the receptor animals were subcutaneously treated with the analgesic Metacam® (2 mg/kg) and then anaesthetized by a single intravenous injection (0.15 mL/mouse) with Etomidat-Lipuro® (12 mg/kg). A superficial vertical incision in the skin of 5-8 mm on the left flank was performed. The tip of a surgical scissor was inserted into the incision, directly over the flank, and was used to form a pocket in the subcutaneous space. One tumor fragment per mouse was implanted into the pocket using surgical tweezers. The incision was closed with a metal clip and the animals were placed back into a clean cage.
During tumor propagation, tumor diameters were measured using a digital caliper (Mitutoyo). Animals were randomly assigned into experimental groups according to their tumor volume (inclusion criteria for tumor volume, 0.1-0.3 cm^3). Tumor volumes and body weights were recorded twice weekly.
The administration volume was 10 mL/kg for intravenous injections throughout all experimental groups.
Descriptive statistics were performed on the data for tumor volume and body weight. Tumor volumes of animals from each treatment group were compared with the control group by using a repeated-measures two-way ANOVA, followed by a Bonferroni post-test. Additionally, the comparison of tumor growth of animals within each group was also performed with the same statistical analysis.
Data set [2] has as its system HEC-251 cells. The data set can be described thus: In vitro cytotoxicity analysis (Crystal Violet), HEC-251. The conditions noted are these: Homo sapiens. It is filed as cell-based. How it is done: (§1) Plates were read at 570 nm. Data was analyzed using GraphPad Prism 6.
For data set [3], the system named is OVCAR3 cells. The data set can be described thus: In vitro cytotoxicity analysis (Crystal Violet), OVCAR3. It is filed as cell-based. The note with it: Homo sapiens. How it is done:
as §1
All ADCs were purified and characterized using SEC-HPLC for aggregation analysis, HIC-HPLC for DAR analysis, and cell-based assay with A431-A3 (MSLN^hi), A431 (MSLN^lo), and OVCAR3 (MSLN^hi) cell lines.

Data set [4] deals with human NSCLC PDX LXFA-737. The procedure:
Animals: Female NMRI nu/nu mice (Crl:NMRI-Foxn1nu), 4 to 6 weeks of age.
Experimental procedure: Animals were monitored until the tumor implants reached the study volume criteria of 50-250 mm^3 (e.g., 80-200 mm^3) in a sufficient number of animals. […] The day of randomization was designated as day 0.
(§2) Tumors were measured and mice were weighed twice a week during the experimental period. The first day of dosing was day 1, one day after randomization (day 0).
Statistical analysis: Inhibition of Tumor Growth, Test/Control Value in % (Min. T/C): The test versus control value (T/C in %) was calculated from the ratio of the median residual tumor volume (RTV) values of test versus control groups on day X multiplied by 100. Tumor volume doubling and quadrupling time (Td, Tq) for test and control groups was defined as the time interval (in days) required for a group to reach a median RTV of 200% or 400%.

The test system of data set [5] is MSLN-negative cell lines. The data set can be described thus: In vitro cytotoxicity (IC50, Crystal Violet) on MSLN-negative cell lines (Example 11). The conditions noted are these: for IC50: Homo sapiens, read-out: In vitro cell based potency, IC50. The data set is classed as cell-based. The procedure: Plates were incubated at 37° C. 5% CO2 for an additional 5 days. […] Plates were read at 570 nm.

Data set [6] has as its system human NSCLC PDX LXFL-529. The data set can be described thus: Human NSCLC PDX model LXFL-529.
Text: (§3) Animals: Female NMRI nu/nu mice, 4 to 6 weeks of age.
Xenotransplantation: LXFL-529 established growing tumor (T3N1M0) from a primary non-small cell lung adenocarcinoma human patient.
Experimental procedure: Animals were monitored until the tumor implants reached the study volume criteria of 50-250 mm^3 (e.g., 80-200 mm^3) in a sufficient number of animals. […] The process of the assignment to groups (enrollment, stratified randomization) may also be referred to as randomization. The day of randomization was designated as day 0 of the experiment.
as §2

In data set [7] the test system is human NSCLC PDX LXFA-586. The data set can be described thus: Human NSCLC PDX model LXFA-586.
Text: as §3
Xenotransplantation: LXFA-586 established growing tumor (T2N1M0) from a primary non-small cell lung adenocarcinoma human patient.
Experimental procedure: Animals were monitored until the tumor implants reached the study volume criteria of 50-250 mm^3 (e.g., 80-200 mmi) in a sufficient number of animals. […] The process of the assignment to groups (enrollment, stratified randomization) may also be referred to as randomization. The day of randomization was designated as day 0 of the experiment.
as §2

Data set [8] deals with human mesothelioma HAY xenograft. How it is done: Female CD-1 IGS mice (Charles River, 7-9 weeks old) were used for the maximum tolerated dose (MTD) study, female NOD.CB17-SCID mice (Jackson Laboratory) were used for the NCI-H2110 and HAY xenograft studies, and female NCr nude mice (Taconic, 5 weeks old) were used for the NCI-N87 xenograft studies. Upon arrival, animals were acclimated for 5-7 days prior to inoculation.
Cryopreserved NCI-H2110, NCI-N87, or HAY cells from frozen stocks were cultured in medium containing necessary supplements.
Mice were injected subcutaneously with 100 μL/mouse of cell mixture and monitored for body weight and tumor growth.
Mice were randomized to five mice per group once tumor implants reached an average volume of 100 mm^3. Treatment was given intravenously at a volume of 200 μL. Terminal body weight was measured and recorded at the end of each study.
Comparison of tumor growth within each experimental group was also performed using the same statistical analysis.

Where two headings read alike, the source gives them in different places.

As usually defined, the EC50 is the concentration giving half of the maximal effect. By IC50 is commonly meant the concentration needed to halve the response being measured. Turning to `C=C1C[C@@H]2CC[C@@]34C[C@H]5O[C@H]6[C@@H](O3)[C@H]3O[C@H](CC[C@@H]3O[C@H]6[C@H]5O4)CC(=O)C[C@@H]3[C@@H](OC)[C@@H](C[C@H](O)CN)O[C@H]3C[C@H]3O[C@@H](CC[C@@H]1O2)C[C@@H](C)C3=C` [Eribulin, eribulin, reference compound], the anti-tumor effect result is reported as “limited anti-tumor effects” in data set [1] (Meso7212 (MV15369), eribulin alone 0.2 mg/kg (equivalent molar amount)); “limited or no anti-tumor effects” in data set [1] (Meso7212 (MV16071), eribulin alone 0.3 mg/kg (equivalent molar amount)); “limited anti-tumor effects” in data set [8] (eribulin alone 0.1 mg/kg (equivalent molar amount as in MORAb-109)); “limited anti-tumor effects” in data set [8] (eribulin alone at the MTD (3.2 mg/kg)). Moreover, in data set [1] (Meso7212 (MV16071), eribulin 0.3 mg/kg), the body weight change entry is reported as “No body weight loss”. The EC50 in data set [2] (HEC-251, 120 h, Table 18, 5 days, read-out: Cell-Based Cytotoxicity Assay, EC50 (nM) HEC-251) turned out to be 0.2 nM; in data set [2] (HEC-251, Table 19, payloads, read-out: Cell-Based Cytotoxicity Assay EC50 (nM) HEC-251) it was 0.2 nM; in data set [3] (OVCAR-3, read-out: Cell based Cytotoxicity assay, EC50 (nM) OVCAR3-6 hr, treated with ADC for 6 hours then washed off) it was 2.81 nM; in data set [3] (OVCAR-3, read-out: Cell based Cytotoxicity assay, EC50 (nM) OVCAR3-72 hr, treated for 72 hours), 0.25 nM. For the same compound, the “minimum T/C” value in data set [4] (eribulin single dose of 0.2 mg/kg, on day 44) stood at 51.1%; in data set [4] (eribulin single dose of 3.2 mg/kg i.v., on day 27), 4.2%; in data set [7] (eribulin single dose of 3.2 mg/kg i.v., on day 21) it was 14.8%. For the same compound, the “Tq (tumor volume quadrupling time)” value in data set [4] (eribulin single dose of 3.2 mg/kg i.v.) amounted to 80.1%. For the same compound, the tolerability / bodyweight entry in data set [4] (mouse, in vivo, iv, 3.2 mg/kg) is “slight and transient bodyweight loss”; in data set [6] (mouse, in vivo, iv, 3.2 mg/kg) it was “slight and transient bodyweight loss”; in data set [7] (mouse, in vivo, iv, 3.2 mg/kg), “slight and transient bodyweight loss”. Also, the “% Max Killing” value in data set [5] (A431 cells (MSLN MFI 5.6)) is reported as 93.04%; in data set [5] (BxPC3 cells (MSLN MFI 15.59)) it was 97.28%; in data set [5] (SKOV3 cells (MSLN MFI 20)), 72.82%. The IC50 in data set [5] (A-431, A431 cells (MSLN MFI 5.6)) turned out to be 0.18 nM; in data set [5] (BXPC-3, BxPC3 cells (MSLN MFI 15.59)) it was 0.13 nM; in data set [5] (SK-OV-3, SKOV3 cells (MSLN MFI 20)), 0.14 nM. Further, the anti-tumor efficacy entry in data set [6] (eribulin single dose of 3.2 mg/kg (mouse MTD) i.v.) was “showed anti-tumor efficacy”.
